Laboratory results reported in ChEMBL document CHEMBL1201862, “PubChem BioAssay data set” (2004).
Activity calls are given as the source filed them.

Key:
[1] = molecular target: T1, Lysine-specific demethylase 4C (Homo sapiens, UniProt Q9H3R0); assay: GASC-1 (JMJD2C) histone demethylase inhibitors, dose response, biochemical, DELFIA europium, cherry-picked samples (AID 488835); type: functional
T1 sequence (Q9H3R0 whole entry): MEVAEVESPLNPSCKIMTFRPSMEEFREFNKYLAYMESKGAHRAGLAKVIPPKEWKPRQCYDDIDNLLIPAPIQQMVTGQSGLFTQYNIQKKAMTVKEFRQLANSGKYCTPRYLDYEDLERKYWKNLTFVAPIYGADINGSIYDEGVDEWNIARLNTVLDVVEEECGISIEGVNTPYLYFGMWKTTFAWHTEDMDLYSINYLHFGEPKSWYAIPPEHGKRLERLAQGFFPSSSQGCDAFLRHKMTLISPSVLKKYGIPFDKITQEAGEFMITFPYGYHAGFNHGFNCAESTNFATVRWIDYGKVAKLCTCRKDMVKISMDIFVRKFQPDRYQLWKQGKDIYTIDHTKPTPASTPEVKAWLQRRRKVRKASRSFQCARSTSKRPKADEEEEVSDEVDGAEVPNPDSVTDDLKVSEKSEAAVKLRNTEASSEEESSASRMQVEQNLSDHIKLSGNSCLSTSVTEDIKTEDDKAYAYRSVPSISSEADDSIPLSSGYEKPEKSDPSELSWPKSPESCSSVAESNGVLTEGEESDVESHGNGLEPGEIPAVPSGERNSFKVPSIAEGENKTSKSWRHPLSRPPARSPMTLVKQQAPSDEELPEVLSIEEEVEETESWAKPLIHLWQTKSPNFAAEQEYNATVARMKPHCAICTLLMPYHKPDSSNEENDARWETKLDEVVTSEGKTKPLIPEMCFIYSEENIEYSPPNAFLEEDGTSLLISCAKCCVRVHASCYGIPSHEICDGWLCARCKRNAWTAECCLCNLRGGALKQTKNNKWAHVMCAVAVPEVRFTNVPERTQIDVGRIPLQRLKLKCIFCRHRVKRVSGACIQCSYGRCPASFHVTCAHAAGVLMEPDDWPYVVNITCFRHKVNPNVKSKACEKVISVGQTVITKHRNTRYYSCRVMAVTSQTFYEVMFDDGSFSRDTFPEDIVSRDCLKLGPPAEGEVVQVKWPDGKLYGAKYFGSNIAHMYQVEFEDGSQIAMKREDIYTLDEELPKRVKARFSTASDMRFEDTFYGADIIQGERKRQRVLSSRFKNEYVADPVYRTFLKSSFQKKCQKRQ

Nonstructural protein 1 = Nonstructural protein 1 (Influenza A virus, UniProt Q194T2); type: functional, Influenza A virus (A/California/07/2009(H1N1))
Chain of Nonstructural protein 1 (Q194T2 whole entry): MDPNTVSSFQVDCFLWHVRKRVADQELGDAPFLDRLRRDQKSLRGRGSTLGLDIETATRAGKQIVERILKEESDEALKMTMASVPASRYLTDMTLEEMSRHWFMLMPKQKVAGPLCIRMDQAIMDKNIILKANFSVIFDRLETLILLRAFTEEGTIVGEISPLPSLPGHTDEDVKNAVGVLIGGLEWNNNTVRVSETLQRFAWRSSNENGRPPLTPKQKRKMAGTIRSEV

[2] = molecular target: T2, Ubiquitin-conjugating enzyme E2 N (Homo sapiens, UniProt P61088); type: functional;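 also: Dose-response confirmation in a TR-FRET assay detecting UBC13-driven polyubiquitin chain formation, inhibition measured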
T2 sequence (P61088 whole entry): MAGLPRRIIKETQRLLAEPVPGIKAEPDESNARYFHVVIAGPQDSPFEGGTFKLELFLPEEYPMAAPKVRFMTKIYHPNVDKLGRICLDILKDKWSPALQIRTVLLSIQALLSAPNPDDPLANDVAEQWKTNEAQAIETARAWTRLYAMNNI

[3] = molecular target: Voltage-dependent T-type calcium channel subunit alpha-1H (Homo sapiens, UniProt O95180); type: functional;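 also: channel activity triggered by adding a high calcium stimulation buffer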
Chain of Voltage-dependent T-type calcium channel subunit alpha-1H (O95180 whole entry): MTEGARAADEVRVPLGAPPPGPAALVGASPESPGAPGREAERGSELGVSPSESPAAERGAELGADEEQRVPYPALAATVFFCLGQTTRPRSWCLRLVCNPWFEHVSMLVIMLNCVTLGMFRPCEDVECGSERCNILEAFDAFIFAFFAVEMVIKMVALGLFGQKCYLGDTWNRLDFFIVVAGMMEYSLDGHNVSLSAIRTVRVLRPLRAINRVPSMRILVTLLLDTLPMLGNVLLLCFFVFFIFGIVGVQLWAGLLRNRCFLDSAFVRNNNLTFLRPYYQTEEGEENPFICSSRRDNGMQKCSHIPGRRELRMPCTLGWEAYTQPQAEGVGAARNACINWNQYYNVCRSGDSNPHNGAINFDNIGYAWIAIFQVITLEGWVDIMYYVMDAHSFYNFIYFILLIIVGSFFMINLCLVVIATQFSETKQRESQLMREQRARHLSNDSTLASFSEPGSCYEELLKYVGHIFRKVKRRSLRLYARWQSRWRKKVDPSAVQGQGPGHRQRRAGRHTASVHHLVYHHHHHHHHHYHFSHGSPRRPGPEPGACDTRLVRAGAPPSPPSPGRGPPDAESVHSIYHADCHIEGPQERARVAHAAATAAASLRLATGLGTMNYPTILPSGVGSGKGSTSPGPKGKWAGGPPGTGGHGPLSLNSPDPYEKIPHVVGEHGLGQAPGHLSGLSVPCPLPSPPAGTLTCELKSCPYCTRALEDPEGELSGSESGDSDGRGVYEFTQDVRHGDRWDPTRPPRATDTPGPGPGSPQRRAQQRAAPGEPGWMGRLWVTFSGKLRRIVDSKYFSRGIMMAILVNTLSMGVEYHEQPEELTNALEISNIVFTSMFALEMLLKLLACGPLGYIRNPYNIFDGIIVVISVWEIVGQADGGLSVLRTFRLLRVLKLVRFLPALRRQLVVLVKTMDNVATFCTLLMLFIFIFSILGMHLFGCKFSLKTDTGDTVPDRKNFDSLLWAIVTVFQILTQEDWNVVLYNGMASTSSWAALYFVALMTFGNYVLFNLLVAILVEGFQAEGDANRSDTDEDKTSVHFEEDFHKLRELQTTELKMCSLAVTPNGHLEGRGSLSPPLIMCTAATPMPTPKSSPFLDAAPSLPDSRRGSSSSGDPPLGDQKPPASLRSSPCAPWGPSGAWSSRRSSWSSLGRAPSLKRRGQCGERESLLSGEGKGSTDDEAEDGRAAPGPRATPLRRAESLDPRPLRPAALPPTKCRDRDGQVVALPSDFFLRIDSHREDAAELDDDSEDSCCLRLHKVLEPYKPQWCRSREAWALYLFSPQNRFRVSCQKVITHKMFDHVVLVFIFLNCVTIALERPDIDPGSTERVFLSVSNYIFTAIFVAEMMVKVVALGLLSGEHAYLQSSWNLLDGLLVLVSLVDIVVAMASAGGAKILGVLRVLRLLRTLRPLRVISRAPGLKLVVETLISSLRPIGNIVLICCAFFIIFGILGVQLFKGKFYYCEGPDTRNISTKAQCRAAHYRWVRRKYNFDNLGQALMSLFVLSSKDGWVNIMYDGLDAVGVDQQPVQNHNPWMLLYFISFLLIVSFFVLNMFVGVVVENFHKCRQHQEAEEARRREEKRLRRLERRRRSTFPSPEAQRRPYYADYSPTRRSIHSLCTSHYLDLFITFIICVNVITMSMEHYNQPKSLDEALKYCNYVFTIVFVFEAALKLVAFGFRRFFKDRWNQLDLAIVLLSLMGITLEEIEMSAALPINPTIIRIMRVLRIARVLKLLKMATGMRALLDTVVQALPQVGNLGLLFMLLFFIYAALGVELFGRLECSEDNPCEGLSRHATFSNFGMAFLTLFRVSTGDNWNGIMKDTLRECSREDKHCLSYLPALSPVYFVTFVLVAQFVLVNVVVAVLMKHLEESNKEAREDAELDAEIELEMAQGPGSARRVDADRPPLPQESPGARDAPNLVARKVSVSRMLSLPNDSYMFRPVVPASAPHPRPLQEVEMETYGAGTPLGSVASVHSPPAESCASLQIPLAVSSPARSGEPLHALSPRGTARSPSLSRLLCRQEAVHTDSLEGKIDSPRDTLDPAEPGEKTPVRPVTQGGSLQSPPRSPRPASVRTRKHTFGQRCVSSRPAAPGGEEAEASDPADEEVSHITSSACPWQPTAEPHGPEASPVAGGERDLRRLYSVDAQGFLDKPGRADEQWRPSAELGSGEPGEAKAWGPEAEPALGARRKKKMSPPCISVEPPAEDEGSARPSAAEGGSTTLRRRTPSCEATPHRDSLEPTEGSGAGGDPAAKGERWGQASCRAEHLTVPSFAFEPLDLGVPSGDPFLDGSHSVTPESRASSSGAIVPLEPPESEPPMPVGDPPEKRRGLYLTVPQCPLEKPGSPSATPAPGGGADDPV

[4] = inhibitors of SNCA 5'UTR-driven reporter translation, confirmation, H4 neuroglioma cells, luminescence (AID 1988); type: functional, cell-based
HEK293 [5] = assay: inhibitors of LMP1-driven NF-kB reporter, dose response, cell-based, HEK293, luciferase, cherry-pick (AID 588343); type: functional; conditions: Homo sapiens
[6] = Luminescence Cell-Based Dose Response HTS to Identify Inhibitors of 5'UTR Stem-Loop Driven Prion Protein mRNA Translation in H4 Neuroglioblastoma Cells. [Related pubchem assays: 1827 (Project Summary), 1813 (Primary HTS)]; type: functional
[7] = inhibitors of firefly luciferase expression or activity, dose response, H4 neuroglioma cells, luminescence (AID 1990); type: functional, cell-based
Streptococcus = assay: Group A Streptococcus viability loss, dose response, counter-screen for streptokinase expression inhibitor project, luminescence, BacTiterGlo (AID 1915); type: functional, organism-based;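 also: potency for reduction of bacterial viability or growth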
[8] = test system: Streptococcus sp. 'group A'; assay: growth inhibition of control SK(-) GAS strain, dose response, counter-screen for streptokinase expression inhibitor project, luminescence, kanamycin, BacTiterGlo, confirmation (AID 1900); type: functional, organism-based
Streptokinase A = molecular target: T3, Streptokinase A (Streptococcus pyogenes serotype M1, UniProt P10520); assay: S. pyogenes streptokinase expression inhibitors, potency, dose response, plasminogen activation absorbance, OD405 (AID 1914); type: functional, Streptococcus pyogenes M1 GAS;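 also: secreted streptokinase activity via plasminogen activation per viability signal from cell pellet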
T3 sequence (P10520 whole entry): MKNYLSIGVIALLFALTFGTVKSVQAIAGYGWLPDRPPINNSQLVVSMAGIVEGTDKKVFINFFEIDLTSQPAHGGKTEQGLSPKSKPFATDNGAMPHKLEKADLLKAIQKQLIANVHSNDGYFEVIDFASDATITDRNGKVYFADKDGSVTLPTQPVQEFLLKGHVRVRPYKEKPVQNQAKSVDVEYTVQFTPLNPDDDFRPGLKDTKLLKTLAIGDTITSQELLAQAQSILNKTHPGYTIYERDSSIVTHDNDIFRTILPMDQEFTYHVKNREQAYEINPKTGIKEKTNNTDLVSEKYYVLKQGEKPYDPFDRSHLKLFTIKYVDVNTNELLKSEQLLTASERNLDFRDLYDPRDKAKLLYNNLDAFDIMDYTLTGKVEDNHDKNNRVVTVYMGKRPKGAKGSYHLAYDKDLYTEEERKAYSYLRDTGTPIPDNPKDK

HEK293 [9] = assay: cells; type: functional, cell-based; conditions: Homo sapiens
HEK293 [10] = assay: NOD1 signaling inhibitors, primary screen, cell-based, luminescence, uHTS (AID 1578); type: functional; conditions: Homo sapiens
HEK293 [11] = assay: NOD2 signaling inhibitors in MDP-stimulated cells, cell-based, uHTS, luminescence (AID 2001); type: functional; conditions: Homo sapiens
HEK293 [12] = assay: cells; type: functional, cell-based; conditions: Homo sapiens; remark: listed apart in the source
cells [13] = type: functional, cell-based
cells [14] = type: functional, cell-based; remark: listed apart in the source
[15] = molecular target: Heat shock protein HSP 90-alpha (Homo sapiens, UniProt P07900); type: functional, organism-based
[16] = molecular target: T4, Heat shock factor protein 1 (Mus musculus, UniProt P38532); assay: HSF1 potentiators in luciferase reporter cells, confirmation, cell-based, NIH3T3, luminescence, dose retest (AID 435004); type: functional;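 also: stress induced by proteasome inhibitor MG132 added 30 min after compound; luciferase reporter driven by HSF1 response element in NIH3T3 cells; actives raise luminescence as potentiators of the MG132 stress response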
T4 sequence (P38532 whole entry): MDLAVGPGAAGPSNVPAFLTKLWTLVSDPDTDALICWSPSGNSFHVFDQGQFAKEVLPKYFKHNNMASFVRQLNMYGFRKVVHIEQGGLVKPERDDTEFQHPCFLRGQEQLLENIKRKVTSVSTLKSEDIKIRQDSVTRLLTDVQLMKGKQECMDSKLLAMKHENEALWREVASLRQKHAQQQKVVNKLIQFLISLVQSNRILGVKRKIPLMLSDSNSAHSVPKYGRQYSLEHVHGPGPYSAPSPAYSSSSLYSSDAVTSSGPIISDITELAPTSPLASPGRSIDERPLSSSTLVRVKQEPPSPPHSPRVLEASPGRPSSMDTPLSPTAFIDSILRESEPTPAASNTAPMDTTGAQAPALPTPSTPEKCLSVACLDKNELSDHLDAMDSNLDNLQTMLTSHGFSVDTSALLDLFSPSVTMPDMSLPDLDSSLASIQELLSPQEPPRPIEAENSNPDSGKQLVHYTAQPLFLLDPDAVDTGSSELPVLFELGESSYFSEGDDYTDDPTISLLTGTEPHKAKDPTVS

[17] = Counterscreen for activators of the function of SWI/SNF related, matrix associated, actin dependent regulator of chromatin, subfamily a, member 2 (SMARCA2, BRM): Luminescence-based cell-based high throughput dose response assay to identify non-selective compounds using the VP16 reporter assay.; type: functional
[18] = molecular target: SWI/SNF-related matrix-associated actin-dependent regulator of chromatin subfamily A member 2 (Homo sapiens, UniProt P51531); assay: Luminescence-based cell-based high throughput dose response assay to identify activators of the function of SWI/SNF related, matrix associated, actin dependent regulator of chromatin, subfamily a, member 2 (SMARCA2, BRM).; type: functional
Chain of SWI/SNF-related matrix-associated actin-dependent regulator of chromatin subfamily A member 2 (P51531 whole entry): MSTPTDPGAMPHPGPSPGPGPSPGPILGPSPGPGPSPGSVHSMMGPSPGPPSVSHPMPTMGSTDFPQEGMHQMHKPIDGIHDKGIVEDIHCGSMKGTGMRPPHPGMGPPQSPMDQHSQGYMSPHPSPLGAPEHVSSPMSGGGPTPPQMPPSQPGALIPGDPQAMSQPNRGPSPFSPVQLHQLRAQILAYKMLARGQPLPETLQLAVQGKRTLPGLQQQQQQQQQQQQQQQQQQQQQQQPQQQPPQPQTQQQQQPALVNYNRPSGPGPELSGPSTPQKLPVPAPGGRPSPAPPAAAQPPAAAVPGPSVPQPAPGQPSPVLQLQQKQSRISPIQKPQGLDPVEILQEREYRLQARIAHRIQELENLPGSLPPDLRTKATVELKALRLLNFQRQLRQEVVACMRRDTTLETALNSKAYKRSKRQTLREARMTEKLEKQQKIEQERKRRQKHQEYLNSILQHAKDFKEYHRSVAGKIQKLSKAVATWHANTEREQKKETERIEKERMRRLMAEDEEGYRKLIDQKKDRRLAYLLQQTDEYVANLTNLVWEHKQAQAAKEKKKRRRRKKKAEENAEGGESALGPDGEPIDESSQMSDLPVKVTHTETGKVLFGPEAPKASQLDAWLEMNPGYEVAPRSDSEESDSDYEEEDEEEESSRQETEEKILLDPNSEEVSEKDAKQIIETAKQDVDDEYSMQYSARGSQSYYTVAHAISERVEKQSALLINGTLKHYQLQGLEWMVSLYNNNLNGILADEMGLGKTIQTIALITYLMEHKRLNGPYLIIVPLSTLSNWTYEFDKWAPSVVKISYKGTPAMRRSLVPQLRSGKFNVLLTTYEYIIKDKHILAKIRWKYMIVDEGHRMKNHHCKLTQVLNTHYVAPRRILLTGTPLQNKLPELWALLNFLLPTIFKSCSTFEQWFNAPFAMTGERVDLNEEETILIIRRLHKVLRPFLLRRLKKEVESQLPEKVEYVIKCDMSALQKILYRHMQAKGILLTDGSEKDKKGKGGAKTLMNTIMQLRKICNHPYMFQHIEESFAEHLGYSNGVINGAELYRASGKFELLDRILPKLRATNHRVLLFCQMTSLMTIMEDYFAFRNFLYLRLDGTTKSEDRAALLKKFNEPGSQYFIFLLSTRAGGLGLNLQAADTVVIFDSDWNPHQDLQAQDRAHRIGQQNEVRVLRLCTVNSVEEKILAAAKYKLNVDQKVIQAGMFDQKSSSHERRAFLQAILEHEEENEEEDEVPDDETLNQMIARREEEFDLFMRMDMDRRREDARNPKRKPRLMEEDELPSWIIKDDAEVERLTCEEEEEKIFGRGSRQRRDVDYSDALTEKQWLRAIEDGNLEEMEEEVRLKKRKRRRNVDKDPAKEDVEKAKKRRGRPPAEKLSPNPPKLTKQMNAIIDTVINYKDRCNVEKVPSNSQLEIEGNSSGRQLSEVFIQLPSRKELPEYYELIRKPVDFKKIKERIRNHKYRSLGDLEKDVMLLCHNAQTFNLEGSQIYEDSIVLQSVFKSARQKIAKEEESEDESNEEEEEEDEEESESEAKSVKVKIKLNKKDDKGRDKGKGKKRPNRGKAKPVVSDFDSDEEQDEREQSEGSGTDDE

cells [19] = type: functional
[20] = Luminescence Cell-Based Dose Confirmation HTS to Identify Inhibitors of Platelet Dense Granule Release. [Related pubchem assays: 1663 (Primary HTS), 1678 (Summary of Project)]; type: functional
[21] = molecular target: Luciferin 4-monooxygenase (Photinus pyralis, UniProt P08659); assay: firefly luciferase enzyme inhibitors, dose response, biochemical, luminescence (AID 1891)
Chain of Luciferin 4-monooxygenase (P08659 whole entry): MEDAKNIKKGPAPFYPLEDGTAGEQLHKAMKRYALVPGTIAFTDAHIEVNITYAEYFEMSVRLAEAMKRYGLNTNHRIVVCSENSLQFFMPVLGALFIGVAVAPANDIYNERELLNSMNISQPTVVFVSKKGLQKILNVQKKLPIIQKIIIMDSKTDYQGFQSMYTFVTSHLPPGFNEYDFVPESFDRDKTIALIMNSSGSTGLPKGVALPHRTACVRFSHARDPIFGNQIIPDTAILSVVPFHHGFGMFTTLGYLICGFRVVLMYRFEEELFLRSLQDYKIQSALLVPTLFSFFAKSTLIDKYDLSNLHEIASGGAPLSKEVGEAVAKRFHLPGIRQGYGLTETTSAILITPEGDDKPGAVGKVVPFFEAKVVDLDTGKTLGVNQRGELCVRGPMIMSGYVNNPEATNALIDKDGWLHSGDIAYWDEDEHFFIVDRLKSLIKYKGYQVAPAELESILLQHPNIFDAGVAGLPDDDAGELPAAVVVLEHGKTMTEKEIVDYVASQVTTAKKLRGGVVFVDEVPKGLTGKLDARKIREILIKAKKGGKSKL

Compound: O=C(OCc1nnc(-c2ccccc2)o1)c1cc(S(=O)(=O)N2CCOCC2)c(Cl)cc1Cl
- AC50 [1]: 10.8 µM (active)

Compound: COCCCNC(=S)NNC(=O)c1ccccn1
- IC50 (Nonstructural protein 1): 2.32 µM (active)
- IC50 [2]: > 20 µM (inactive)
- AC50 [1]: 24.1 µM (active)

Compound: O=C(CCSc1ccc(Cl)c(Cl)c1)NC12CC3CC(CC(C3)C1)C2
- EC50 [3]: 5.57 µM (active)

Compound: CCOC(=O)c1sc(NC(=O)CNCc2ccccn2)c(C(=O)OCC)c1C
- EC50 [4]: 8.92 µM (active)
- IC50 (Nonstructural protein 1): 8.76 µM (active)
- AC50 (HEK293 [5]): 2.35 µM (active)
- EC50 [6]: 9.71 µM (active)
- EC50 [7]: 11.7 µM (active)
- EC50 (Streptococcus): 5.05 µM (active)
- EC50 [8]: 0.195 µM (active)

Compound: CC(C(=O)OCC(=O)Nc1ccc(S(=O)(=O)N2CCCCC2)cc1)N1C(=O)c2ccccc2C1=O (stereo not given)
- EC50 [3]: 5.44 µM (active)

Compound: O=C(NC(NC(=S)Nc1ccccc1Cl)C(Cl)(Cl)Cl)c1cccc(Cl)c1 (stereo not given)
- EC50 (Streptokinase A): 5.81 µM (active)
- IC50 (HEK293 [9]): 11.5 µM (active)
- EC50 (HEK293 [10]): > 20 µM (inactive)
- IC50 (HEK293 [11]): 3.78 µM (active)
- IC50 (HEK293 [12]): 3.72 µM (active)
- EC50 (Streptococcus): 3.79 µM (active)
- EC50 [8]: 2.05 µM (active)

Compound: CCCCOC(=O)n1c(=O)oc2cc(S(=O)(=O)N3CCCCC3)ccc21
- EC50 (cells [13]): > 350 µM (not active)
- EC50 (cells [14]): > 350 µM (not active)
- EC50 [3]: 4.48 µM (active)

Compound: CCc1sc(C(=O)Nc2nc(-c3ccccn3)cs2)cc1C
- AC50 [15]: 7.91 µM (active)
- AC50 (HEK293 [5]): 1.33 µM (active)

Compound: COc1ccccc1/C=C1/SC(=S)N(C(C)C(=O)NC2C=CS(=O)(=O)C2)C1=O (stereo not given)
- AC50 [1]: > 60 µM (inactive)
- EC50 [16]: 57.9 µM (active)

Compound: COc1cccc(C(=O)COC(=O)c2cccs2)c1
- EC50 [17]: > 91.1 µM (inactive)
- EC50 [18]: > 91.1 µM (inactive)

Compound: COc1ccc(OC)c2sc(NC(=O)C3COc4ccccc4O3)nc12 (stereo not given)
- EC50 [3]: 78 µM (active)

Compound: O=C(N/N=C/c1ccc(OC(=O)c2cccs2)cc1)c1ccccn1
- IC50 (cells [19]): 5.37 µM (active)

Compound: CC(C)c1c(CN(C)C(C)Cc2ccccc2)n(C)n(-c2ccccc2)c1=O (stereo not given) [FAMPROFAZONE]
- AC50 (HEK293 [5]): 292 µM (active)

Compound: O=C(N/N=C/c1ccc[nH]1)c1ccncc1
- IC50 (cells [19]): 2.28 µM (active)

Compound: CC1CCCCN1C(=O)CSCC(=O)Nc1nc(-c2cccs2)cs1 (stereo not given)
- EC50 [3]: 4.06 µM (active)

Compound: Cc1nnc2c(N(C)S(=O)(=O)c3ccccc3)nc3ccccc3n12
- EC50 [17]: > 91.2 µM (inactive)
- EC50 [18]: > 91.2 µM (inactive)
- EC50 [20]: > 112 µM (not active)
- EC50 [21]: > 112 µM (not active)

Compound: Cc1ccc(C(=O)NCc2ccc3c(c2)OCO3)cc1S(=O)(=O)N1CCCCC1
- EC50 [3]: 5.23 µM (active)

Compound: Cc1ccccc1NC(=O)c1c(F)c(F)c(F)c(F)c1F
- AC50 [1]: 29.3 µM (active)
